Results as given in patent US10040748B2, “4-hydroxybutyric acid analogs” (Concert Pharmaceuticals, Inc., priority 2011, dated 2018).
Counter-ions that a name gives are not always drawn.

Experiments:
[1] = In vivo pharmacokinetic studies in rats (IV and PO dosing, plasma); conditions: rat; for AUC0-∞ / CL / Vz / Cmax / Tmax: mean of N=4; for % F: 200 mg/kg PO vs IV, printed in AUC0-∞ column
Description: The pharmacokinetics of exemplary compounds was determined by comparison with 4-hydroxybutyric acid by dosing the compounds in rats according to the following study design and sampling procedure.

[2] = humans; cited from earlier work
[3] = 200 mg/kg PO, mean of N=4, Cmin at 4 hr
[4] = 200 mg/kg IV, mean of N=4, Cmin at 2 hr
[5] = 200 mg/kg IV, mean of N=4, calculated up to 2 hr
[6] = 200 mg/kg PO, mean of N=4, calculated up to 4 hr

In the case of `O=C(O)CCCO` [4-hydroxybutyric acid, sodium salt, sodium salt of 4-hydroxybutyric acid, reference compound], the concentration at 2 hr ([1]; plasma, 200 mg/kg IV, mean of N=4, Cmin at 2 hr) is given as 8000 ng/mL, the Cmin [1, 3] is given as 2000 ng/mL and the half life [2] is given as 30 to 60 min.

For `[2H]C([2H])(O)CC([2H])([2H])C(=O)[O-].[Na+]` [IV-b, sodium salt, Sodium 2,2,4,4-d4-4-hydroxybutanoate], the “AUC0-∞” value ([1]; 200 mg/kg IV) was 651 µg·h/mL, the CL ([1]; 200 mg/kg IV) was 5 mL/min/kg and the Vz ([1]; 200 mg/kg IV) was 0.3 L/kg. For the same compound, the Cmin [1, 4] was 76000 ng/mL, the t1/2 [1, 5] was 37.8 min and the “% F” value [1] was 40%. For the same compound, the “AUC0-∞” value ([1]; 200 mg/kg PO) was 260 µg·h/mL, the Cmax ([1]; 200 mg/kg PO) was 151000 ng/mL and the Tmax ([1]; 200 mg/kg PO) was 37.8 min. The Cmin [1, 3] was 5000 ng/mL, the t1/2 [1, 6] was 56.4 min and the “pharmacokinetics relative to 4-hydroxybutyric acid, sodium salt” value ([1]; 200 mg/kg, comparison of AUC0-∞ and t1/2) was “considerably increased”.

With `[2H]C([2H])(CCO)C(=O)[O-].[Na+]` [Sodium 2,2-d2-4-Hydroxybutanoate] the “AUC0-∞” value ([1]; 200 mg/kg IV) was 476 µg·h/mL, the CL ([1]; 200 mg/kg IV) was 7 mL/min/kg and the Vz ([1]; 200 mg/kg IV) was 0.2 L/kg. For the same compound, the Cmin [1, 4] was 19000 ng/mL, the t1/2 [1, 5] was 19.8 min and the “% F” value [1] was 41%. The “AUC0-∞” value ([1]; 200 mg/kg PO) was 193 µg·h/mL, the Cmax ([1]; 200 mg/kg PO) was 153000 ng/mL and the Tmax ([1]; 200 mg/kg PO) was 37.8 min. For the same compound, the Cmin [1, 3] was 1000 ng/mL, the t1/2 [1, 6] was 35.4 min and the “AUC0-∞ fold change (printed in brackets under the PO AUC)” value ([1]; 200 mg/kg PO, reference not given, apparently vs 4-hydroxybutyric acid, sodium salt) was “(+1.1X)”.
